# Experimental data: patent US20260174829A1, “METHODS OF REDUCING TYPE 2 CYTOKINE-MEDIATED INFLAMMATION USING NEUROMEDIN PEPTIDES” (Rutgers, The State University of New Jersey, priority 2018, published 2026)
# Assays:
# Type in all cases: cell-based, mouse
# lung ILC2s = assay: Sort-purified lung ILC2 in vitro cultures with Nmb, IL-5/IL-13 ELISA
# Protocol: FIGS. 6A-6E. Nmb suppresses type 2 cytokine responses. (A), Nb-infected mice were treated with PBS or Nmb (i.t.) and ILC2s in the BAL were quantified. (B) Expression of IL-5 and IL-13 in the lungs of PBS or Nmb-treated mice was determined on day 7 post-Nb by Real-time PCR. (C) Eosinophils in the BAL were quantified and (D) worm burdens were determined on day 7 post-Nb infection. ILC2s were sort-purified from the lungs of control or baso-dep mice on day 7 post-Nb and cultured (O/N) with IL-2 and IL-7 in the presence or absence of Nmb and (E) IL-5 and IL-13 levels in culture supernatants were determined by ELISA. P values were determined by two-tailed Student's t-tests.
# FIGS. 10A-10B. NMB inhibits type 2 cytokine production from IL-33 activated ILC2. ILC2s were sort-purified from the lungs of Nb-infected mice (day 7) and cultured with survival cytokines (IL-2, IL-7) and in the presence or absence of Nmb and/or IL-33. Following overnight culture, supernatants were tested for the presence of IL-5 (FIG. 10A) and IL-13 (FIG. 10B) by standard ELISA. Statistical comparisons were done using a Student's t-test.
# Lung cells were isolated from the lungs of WT or basophil-depleted mice on day 7 post-N. brasiliensis infection. ILC populations (CD45^+Lin^−CD90^+CD127^+) were sort-purified and 10,000 cells were cultured in the presence of 100 ng/mL of IL-2, IL-7 and vehicle (PBS) or 10 μg/mL of Neuromedin B for 24 hours. IL-5 and IL-13 were quantified in cell-free supernatants by ELISA.
# These studies illustrate that Nb-induced ILC2 responses are exaggerated in the absence of basophils. […] However, ILC2 responses are also known to be regulated by several other factors following a Nb challenge. Specifically, IL-33 is reported to be a critical regulator of lung ILC2 responses post-Nb infection (24). To address whether altered ILC2 activity in the absence of basophils is a result of reduced availability of IL-33, rather than alterations in NMB-NMBR signaling pathways, ILC2s were sort-purified from the lungs of Nb-infected mice (day 7) and cultured with survival cytokines (IL-2, IL-7) and/or IL-33 and NMB. Following overnight culture, supernatants were tested for the presence of IL-5 and IL-13 by standard ELISA. Statistical comparisons were done using a Student's t-test.
# ILC2s = assay: RNA sequencing of ILC2s cultured overnight with or without Nmb; conditions: gene expression, NMB treated vs untreated ILC2s
# Protocol: To gain further insight into how NMB might alter lymphocyte activation, ILC2s were sort-purified from the lungs of Nb-infected mice and cultured overnight with survival cytokines (IL-2, IL-7), with or without Nmb. Then, gene expression was evaluated by RNA sequencing analysis. […] This allowed for identification of NMB signaling pathways.
# TH2 cells = assay: Anti-CD3/anti-CD28 stimulated lymph node cells (day 7 post-Nb), IL-5/IL-13 ELISA; conditions: LN cells day 7 post-Nb, anti-CD3 and anti-CD28, 48 hours, vs media control
# Protocol: FIGS. 7A-7I. Nmb treatment is sufficient to suppress allergic airway inflammation. Mice challenged with papain were treated with PBS or Nmb (i.t.) and (A) Lung ILC2s, (B) IL-5+ and IL-13+ ILC2s, and (C) eosinophils were evaluated. […] Mesenteric lymph nodes (MLNs) were isolated on day 7 post-Nb and single cells suspensions were treated with anti-CD3 and anti-CD28 in the presence or absence of Nmb for 48 hours and (E), IL-5 and (F) IL-13 were quantified in cell-free supernatants by ELISA. (F-I), Modified versions of Nmb (see Table 2) were tested for their ability to alter IL-5 and IL-13 production from anti-CD3 and anti-CD28 MLN cells isolated on day 7 post-Nb. P values were determined by two-tailed Student's t-tests. Blue asterisks represent comparisons between media treated controls and native Nmb. Red asterisks represent comparisons between media treated controls and modified version of Nmb as described in Table 2. (*,p<0.05), (**,p<0.01), (***,p<0.001) or (F-I).
# FIGS. 8A-8B. Mesenteric lymph nodes (MLNs) were isolated on day 7 post-Nb and single cells suspensions were treated with anti-CD3 and anti-CD28 in the presence or absence of native Nmb or modified versions of the peptide for 48 hours and (A), IL-5 and (B) IL-13 were quantified in cell-free supernatants by ELISA. P values were determined by two-tailed Student's t-tests. Blue asterisks represent comparisons between media treated controls and native Nmb. Red asterisks represent comparisons between media treated controls and modified version of Nmb as described in Table 2. (*,p<0.05), (**,p<0.01), (***,p<0.001).
# At the time points evaluated post-Nb, the majority of the type 2 cytokines are ILC2-derived (14) and any effects Nmb is having on TH2 cell responses may be difficult to detect. To address this, lung-draining LNs were isolated on day 7 post-Nb and stimulated with anti-CD3 and -CD28 to activate T cells in both the presence of absence of recombinant Nmb. LN cells treated with anti-CD3 and -CD28 produced increased amounts of IL-5, and IL-13 (FIGS. 7D, 7E).
# Thus, Nmb can be employed to reduce type 2 cytokine-mediated inflammation. Native Nmb is a 10-mer peptide (SEQ ID NO: 1) that operates via its ability to bind the Nmb receptor (15). This example describes the results of an alanine scan to systematically replace various residues of the Nmb with alanine (Table 2) and the resulting ability of the variant Nmb peptides to inhibit type 2 cytokine production by TH2 cells. Further, caps were added to the native form of Nmb (SEQ ID NO: 1) and its bioactivity monitored (FIG. 5A).
# [1] = ILC2s day 7 post-Nb, IL-2 and IL-7, overnight, no IL-33, ELISA
# [2] = ILC2s from basophil-deficient Nb-infected mice, overnight with IL-2 and IL-7, ELISA
# [3] = ILC2s from basophil-sufficient Nb-infected mice, overnight with IL-2 and IL-7, ELISA
substance,measurement,setting,value
H2N-GNLWATGHFM-amide [Nmb],type 2 cytokines (IL-5 and IL-13) from IL-33 activated ILC2s,"lung ILC2s; ILC2s day 7 post-Nb, IL-2, IL-7 and IL-33, overnight, ELISA",significant reductions
same,IL-5 production from ILC2s at steady-state,lung ILC2s; [1],significantly reduce
same,IL-13 production from ILC2s at steady-state,lung ILC2s; [1],significantly reduce
same,IL-5 production by ILC2s (significantly reduced or not),lung ILC2s; [2],not
same,IL-13 production by ILC2s (significantly reduced or not),lung ILC2s; [2],not
same,IL-5 production by ILC2s,lung ILC2s; [3],significantly reduced
same,IL-13 production by ILC2s,lung ILC2s; [3],significantly reduced
same,Fold change Gm10031,ILC2s,−6.203
same,Fold change Gm14288,ILC2s,−25.43
same,Fold change Hgs_2,ILC2s,−1.893
same,Fold change Ighg1,ILC2s,253.6
same,Fold change Ighg2b,ILC2s,276
same,Fold change Igkv1-135,ILC2s,47.49
same,Fold change Igkv8-28,ILC2s,43.8
same,Fold change Igkv17-127,ILC2s,800.9
same,Fold change Il1b,ILC2s,3.263
same,Fold change Klra7,ILC2s,−1.984
same,Fold change Ly6c2,ILC2s,−2.369
same,Fold change Mcpt2,ILC2s,−11.86
same,Fold change Nkg7,ILC2s,−1.895
same,Fold change P2rx7,ILC2s,−2.149
same,Fold change Serpinb2,ILC2s,5.696
same,Fold change Sprr2a2,ILC2s,37.85
same,Fold change Tsix,ILC2s,2.833
same,Fold change Xist,ILC2s,3.077
same,IL-5 production from activated TH2 cells,TH2 cells,significantly reduced
same,IL-13 production from activated TH2 cells,TH2 cells,significantly reduced
same,IL-5 production from activated TH2 cells,TH2 cells; listed as Native Nmb,significantly reduce
same,IL-5 production from activated TH2 cells,TH2 cells; listed as native Nmb,sufficient to reduce
same,IL-13 production from activated TH2 cells,TH2 cells; listed as native Nmb,sufficient to reduce
